We go through 14 compounds from patent US8188135B2, “Compounds as cannabinoid receptor ligands” (priority 2008, dated 2012).

pEC50, pKi: −log10 of the molar value. Values joined by “and” are separate entries in the source; they are usually repeats but may differ in a detail not shown here. Equal values may be shown once. Read-outs that look alike come from different tables or passages of the source.

One series concerns the target T1, human CB2 receptors (Homo sapiens, UniProt P34972).
T1 construct: expressed in transfected cells; host or cells: HEK293
In words: human CB2 radioligand binding assay ([3H]CP 55,940 competition). The settings on record: HEK293 membranes, 0.5 nM [3H]CP 55,940; for Ki: human CB2 (Ki, nM). The essentials: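 Membranes from HEK293 cells stably expressing human CB2 (5 μg protein/well) competed against 0.5 nM [3H]CP 55,940 with five concentrations of test ligand (0.01 nM to 10 μM), pH 7.4 Tris buffer with BSA, 90 min at 30 °C. Filtration and scintillation counting; nonspecific binding with 10 μM unlabeled CP 55,940.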

A further series has as its target T2, Rat CB1 (Rattus norvegicus, UniProt P20272).
T2 construct: expressed in transfected cells; host or cells: HEK
Put plainly: rat CB1 cyclase functional assay (HitHunter cAMP). The series is classed as cell-based. The following applies: HEK cells, forskolin 37 μM; for pEC50: read-out: Rat CB1 cyclase (EC50); for EC50: Rat CB1 cyclase (EC50, nM). As to the method:
(§1) The cyclase functional assays were performed using the HitHunter™ cAMP assay kit from DiscoveRx (Fremont, Calif.) according to vendor's protocol. Briefly, HEK cells expressing CB2 or CB1 receptors (rat or human) were detached using cell dissociation buffer (Invitrogen, Carlsbad, Calif.), dispersed and placed in suspension at 10,000 cells per well in 96 well plates prior to the assay. Cell suspensions were incubated at 37° C. for 20 min with variable concentrations of test ligands and or 10 μM CP 55,940-positive control in the presence of a fixed concentration of forskolin (18 μM for rat CB2 and 37 μM for rat CB1) in Dulbescco's phosphate-buffered saline (Invitrogen, Carlsbad, Calif.) supplemented with bovine serum albumin (0.01% final concentration). The reactions were terminated by the addition of lysis buffer and the luminescence was detected following the procedure according to the manufacturer's instructions. EC50 values were calculated using sigmoidal dose-response curve fitting from Prism (GraphPad).

The nature of series [1]: pharmacokinetic studies in rats. The settings on record: male, Sprague-Dawley, rat; for half-life: in vivo, 3 micromole/kg; for half-life / clearance: iv; for bioavailability: po. As to the method: Male Sprague-Dawley rats, weighing 250-400 g, were obtained from Charles Rivers Laboratories. Pharmacokinetic studies were conducted in three groups of rats; each group contained three animals. All groups were dosed with a solution formulation. The first group of three rats received an intravenous dose, administered under isoflurane anesthetic. The second group received an intraperitoneal dose and the third group received an oral dose, administered by gavage. Sequential blood samples were obtained from a tail vein of each animal for 8-24 hours after dosing. Plasma was separated by centrifugation and stored frozen until analysis.
Half life […] and plasma clearance values are based on intravenous administration (3 micromole/kg).
Half life (t1/2) and plasma clearance values are based on intravenous administration (3 micromole/kg).

Series [2] has as its target T3, rat CB2 (Rattus norvegicus, UniProt Q9QZN9).
T3 sequence (Q9QZN9 1-360): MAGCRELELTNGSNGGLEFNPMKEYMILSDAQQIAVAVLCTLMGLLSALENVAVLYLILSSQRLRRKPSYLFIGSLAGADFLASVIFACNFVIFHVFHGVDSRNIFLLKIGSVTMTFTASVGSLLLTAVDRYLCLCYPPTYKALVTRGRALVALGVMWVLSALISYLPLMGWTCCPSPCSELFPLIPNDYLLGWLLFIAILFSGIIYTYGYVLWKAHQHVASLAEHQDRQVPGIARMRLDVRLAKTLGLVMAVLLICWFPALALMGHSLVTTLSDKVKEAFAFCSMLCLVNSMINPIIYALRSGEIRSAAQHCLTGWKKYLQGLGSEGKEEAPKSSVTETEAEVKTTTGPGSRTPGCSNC
Put plainly: rat CB2 radioligand binding assay ([3H]CP 55,940 competition). Also noted: expressed in transfected cells; host or cells: HEK293. The following applies: HEK293 membranes, 0.5 nM [3H]CP 55,940; for Ki: rat CB2 (Ki, nM). A digest of the protocol:
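Membranes (20 μg protein/well) from HEK293 cells stably expressing the receptor were incubated 45 min at 30 °C with 0.5 nM [3H]CP 55,940 and five concentrations of test compound (0.01 nM–10 μM) in Tris/EDTA/MgCl2/BSA buffer, pH 7.4. Bound ligand was measured by GF/C filtration and scintillation counting; 10 μM CP 55,940 defined nonspecific binding.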

Series [3] addresses T3, rat CB2. Put plainly: rat CB2 cyclase functional assay (HitHunter cAMP). The format is cell-based. More on the design: expressed in transfected cells; host or cells: HEK. The following applies: HEK cells, forskolin 18 μM; for EC50: rat CB2 cyclase (EC50, nM). As to the method:
as §1

T2 sequence (P20272 whole entry): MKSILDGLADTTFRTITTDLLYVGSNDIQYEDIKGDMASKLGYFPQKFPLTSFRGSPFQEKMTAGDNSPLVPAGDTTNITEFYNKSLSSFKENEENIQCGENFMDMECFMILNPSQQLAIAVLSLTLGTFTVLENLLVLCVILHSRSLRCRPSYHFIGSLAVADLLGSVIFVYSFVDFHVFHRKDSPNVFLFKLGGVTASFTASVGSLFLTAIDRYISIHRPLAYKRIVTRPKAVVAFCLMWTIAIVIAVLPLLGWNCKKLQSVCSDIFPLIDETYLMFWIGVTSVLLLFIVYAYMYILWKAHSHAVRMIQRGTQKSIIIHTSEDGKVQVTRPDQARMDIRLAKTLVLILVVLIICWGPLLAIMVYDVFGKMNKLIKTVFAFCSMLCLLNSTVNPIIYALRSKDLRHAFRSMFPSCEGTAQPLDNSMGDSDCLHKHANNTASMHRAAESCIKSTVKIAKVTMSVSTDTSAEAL
T1 sequence (P34972 whole entry): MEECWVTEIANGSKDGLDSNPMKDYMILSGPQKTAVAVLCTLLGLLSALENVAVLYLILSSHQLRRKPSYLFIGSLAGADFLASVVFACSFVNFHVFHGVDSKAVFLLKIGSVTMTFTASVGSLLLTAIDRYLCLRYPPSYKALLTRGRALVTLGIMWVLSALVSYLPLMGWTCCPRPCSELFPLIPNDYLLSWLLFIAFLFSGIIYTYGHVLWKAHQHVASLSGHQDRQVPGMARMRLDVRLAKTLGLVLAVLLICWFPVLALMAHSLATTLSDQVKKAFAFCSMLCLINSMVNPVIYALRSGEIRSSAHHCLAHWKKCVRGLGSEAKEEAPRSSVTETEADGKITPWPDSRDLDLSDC

Broadly, the Ki is the equilibrium dissociation constant of an inhibitor or competing ligand from its target. A low value points to a stronger hold on the target. One may read the pEC50 as the negative decadic logarithm of the EC50, by convention in mol/L. As usually defined, the half-life is the time in which the quantity being followed falls by half. As usually defined, the clearance is the rate of elimination divided by the concentration. A word on the bioavailability: it is dose-corrected exposure relative to a reference, in per cent. Read a high bioavailability as good availability. On human CB2 receptors, `C[C@@H](O)COc1ccc(C(F)(F)F)cc1C(=O)/N=c1\cc(C(C)(C)C)n(C)n1C[C@H]1CCCO1` [Example 91, N-{(3E)-5-tert-butyl-1-methyl-2-[(2R)-tetrahydrofuran-2-ylmethyl]-1,2-dihydro-3 H-pyrazol-3-ylidene}-2-{[(2R)-2-hydroxypropyl]oxy}-5-(trifluoromethyl)benzamide] gave a Ki of 38 nM. Besides, the pEC50 at Rat CB1 is below 4.57. In series [1], the half-life is 150 min, the clearance was 31.7 mL/min/kg and the bioavailability worked out at 33%. On rat CB2 [2], this compound registered an inhibition constant Ki of 18 nM.
In general, EC50 refers to the concentration at which the effect is half-maximal. Regarding `CN1CCC[C@H]1COc1ccc(C(F)(F)F)cc1C(=O)/N=c1\cc(C(C)(C)C)on1C[C@H]1CCCO1` [Example 39, N-[(3E)-5-tert-butyl-2-[(2R)-tetrahydrofuran-2-ylmethyl]isoxazol-3(2H)-ylidene]-2-{[(2S)-1-methylpyrrolidin-2-yl]methoxy}-5-(trifluoromethyl)benzamide], the results for the Ki at human CB2 receptors and on rat CB2 [2] were 62 nM and 46 nM, respectively. Further, the results for the EC50 on Rat CB1 and on rat CB2 [3] were 2620 nM and 0.63 nM, respectively.
For the compound `Cn1c(C(C)(C)C)c/c(=N\C(=O)c2cc(C(F)(F)F)ccc2OC[C@H]2COC(C)(C)O2)n1C[C@H]1CCCO1` [Example 18, N-{(3E)-5-tert-butyl-1-methyl-2-[(2R)-tetrahydrofuran-2-ylmethyl]-1,2-dihydro-3H-pyrazol-3-ylidene}-2-{[(4S)-2,2-dimethyl-1,3-dioxolan-4-yl]methoxy}-5-(trifluoromethyl)benzamide], the Ki at human CB2 receptors came to 37 nM; on rat CB2 [2] it was 22 nM. The results for the EC50 at Rat CB1 and at rat CB2 [3] were above 27000 nM and 1.8 nM, respectively.
For `CC(=O)NCCOc1ccc(C(F)(F)F)cc1C(=O)/N=c1\cc(C(C)(C)C)n(C)n1C[C@H]1CCCO1` [Example 78, 2-[2-(acetylamino)ethoxy]-N-{(3E)-5-tert-butyl-1-methyl-2-[(2R)-tetrahydrofuran-2-ylmethyl]-1,2-dihydro-3H-pyrazol-3-ylidene}-5-(trifluoromethyl)benzamide], in that order: 15 nM, 18 nM, 8880 nM and 1.9 nM.
Take `Cn1c(C(C)(C)C)c/c(=N\C(=O)c2cc(C(F)(F)F)ccc2OCC[C@H]2COC(C)(C)O2)n1C[C@H]1CCCO1` [Example 17, N-{(3E)-5-tert-butyl-1-methyl-2-[(2R)-tetrahydrofuran-2-ylmethyl]-1,2-dihydro-3H-pyrazol-3-ylidene}-2-{2-[(4S)-2,2-dimethyl-1,3-dioxolan-4-yl]ethoxy}-5-(trifluoromethyl)benzamide]: the inhibitory constant (Ki) was determined as 25 nM at human CB2 receptors and 36 nM on rat CB2 [2]. Also, the half-maximal effective concentration (EC50) is above 27000 nM on Rat CB1 and 0.7 nM on rat CB2 [3].
In the same order, the values of `Cn1c(C(C)(C)C)c/c(=N\C(=O)c2cc(C(F)(F)F)ccc2OCCNS(C)(=O)=O)n1C[C@H]1CCCO1` [Example 45, N-{(3E)-5-tert-butyl-1-methyl-2-[(2R)-tetrahydrofuran-2-ylmethyl]-1,2-dihydro-3H-pyrazol-3-ylidene}-2-{2-[(methylsulfonyl)amino]ethoxy}-5-(trifluoromethyl)benzamide] are 19 nM, 7.8 nM, 4940 nM and 0.47 nM.
As usually defined, the pKi is the Ki on a negative log10 scale, so that one unit is a factor of ten. With `Cn1c(C(C)(C)C)c/c(=N\C(=O)c2cc(C(F)(F)F)ccc2OC[C@@H]2CCC(C)(C)O2)n1C[C@H]1CCCO1` [Example 52], the negative-log Ki (pKi) on human CB2 receptors (read-out: human CB2 (Ki)) is 8.00; on rat CB2 [2] (read-out: rat CB2 (Ki)) it was 7.72. Also, the pEC50 at Rat CB1 was below 4.57; on rat CB2 [3] (read-out: rat CB2 cyclase (EC50)), 9.03.
As for `CN1CCC[C@H]1COc1ccc(C(F)(F)F)cc1C(=O)/N=c1\sc(C(C)(C)C)nn1C[C@H]1CCCO1` [Example 69, N-[(2Z)-5-tert-butyl-3-[(2R)-tetrahydrofuran-2-ylmethyl]-1,3,4-thiadiazol-2(3 H)-ylidene]-2-{[(2S)-1-methylpyrrolidin-2-yl]methoxy}-5-(trifluoromethyl)benzamide], the Ki was 10 nM and 14 nM on human CB2 receptors; 19 nM and 5 nM at rat CB2 [2]. The 50% effective concentration (EC50) at rat CB2 [3] was 0.93 nM and 0.16 nM.
Turning to `Cn1c(C(C)(C)C)c/c(=N\C(=O)c2cc(C(F)(F)F)ccc2OCCNS(=O)(=O)C2CC2)n1C[C@H]1CCCO1` [Example 49, N-{(3E)-5-tert-butyl-1-methyl-2-[(2R)-tetrahydrofuran-2-ylmethyl]-1,2-dihydro-3H-pyrazol-3-ylidene}-2-{2-[(cyclopropylsulfonyl)amino]ethoxy}-5-(trifluoromethyl)benzamide], the inhibitory constant (Ki) on human CB2 receptors is 13 nM; at rat CB2 [2], 2.7 nM. Moreover, the EC50 at Rat CB1 turned out to be 4190 nM; at rat CB2 [3] it was 0.12 nM.
In the same order, the values of `Cn1c(C(C)(C)C)c/c(=N\C(=O)c2cc(C(F)(F)F)ccc2OCCS(C)(=O)=O)n1C[C@H]1CCCO1` [Example 56] are 66 nM, 28 nM, 2780 nM and 0.93 nM.
Take `Cn1c(C(C)(C)C)c/c(=N\C(=O)c2cc(C(F)(F)F)ccc2OC[C@@H]2CCCCN2)n1C[C@H]1CCCO1` [Example 88, N-{(3E)-5-tert-butyl-1-methyl-2-[(2R)-tetrahydrofuran-2-ylmethyl]-1,2-dihydro-3 H-pyrazol-3-ylidene}-2-[(2S)-piperidin-2-ylmethoxy]-5-(trifluoromethyl)benzamide]: the inhibition constant (Ki) on human CB2 receptors came to 14 nM; at rat CB2 [2] it was 3.5 nM. Moreover, the 50% effective concentration (EC50) turned out to be 702 nM at Rat CB1 and 0.45 nM at rat CB2 [3].
In the same order, the values of `CC1CCC(COc2ccc(C(F)(F)F)cc2C(=O)N=c2cc(C(C)(C)C)n(C)n2CC2CCCO2)O1` (single isomer, unassigned) [Example 37] are 57 nM, 16 nM, 8590 nM and 0.45 nM.
For the compound `Cn1c(C(C)(C)C)c/c(=N\C(=O)c2cc(C#N)ccc2OCC(C)(C)O)n1CC1CCC1` [Example 113, N-[(3E)-5-tert-butyl-2-(cyclobutylmethyl)-1-methyl-1,2-dihydro-3H-pyrazol-3-ylidene]-5-cyano-2-(2-hydroxy-2-methylpropoxy)benzamide], the inhibition constant (Ki) on human CB2 receptors was 54 nM. In addition, at Rat CB1, the pEC50 was below 4.57. For the same compound, in series [1], the half-life was 204 min, the clearance was 20 mL/min/kg and the bioavailability was found to be 100%. Moreover, the Ki at rat CB2 [2] turned out to be 28 nM.
At human CB2 receptors, `CCCCCn1/c(=N/C(=O)c2cc(C#N)ccc2OCC(C)(C)O)cc(C(C)(C)C)n1C` [Example 115, N-[(3E)-5-tert-butyl-1-methyl-2-pentyl-1,2-dihydro-3H-pyrazol-3-ylidene]-5-cyano-2-(2-hydroxy-2-methylpropoxy)benzamide] came in with an inhibition constant Ki of 81 nM. On Rat CB1, the pEC50 is below 4.57. In series [1], the half-life was 36 min, the clearance is 30 mL/min/kg and the bioavailability was 7%. The compound also registered a Ki on rat CB2 [2] of 17 nM.
